{"source": "paper PMC9126943", "about": "“ADAMTS4-specific MR probe to assess aortic aneurysms in vivo using synthetic peptide libraries” (Nature Communications, 2022)", "key": {"[1]": {"assay": "Biodistribution and blood clearance by ICP-MS of Gd"}, "[2]": {"assay": "Solubility (statement, no method)", "format": "physicochemical", "settings": "statement in the discussion"}, "[3]": {"target": "T1, ADAMTS4 in the aortic wall of ApoE−/− mice (Mus musculus, UniProt Q8BNJ2)", "T1 construct": "from tissue", "T1 sequence (Q8BNJ2 209-833)": "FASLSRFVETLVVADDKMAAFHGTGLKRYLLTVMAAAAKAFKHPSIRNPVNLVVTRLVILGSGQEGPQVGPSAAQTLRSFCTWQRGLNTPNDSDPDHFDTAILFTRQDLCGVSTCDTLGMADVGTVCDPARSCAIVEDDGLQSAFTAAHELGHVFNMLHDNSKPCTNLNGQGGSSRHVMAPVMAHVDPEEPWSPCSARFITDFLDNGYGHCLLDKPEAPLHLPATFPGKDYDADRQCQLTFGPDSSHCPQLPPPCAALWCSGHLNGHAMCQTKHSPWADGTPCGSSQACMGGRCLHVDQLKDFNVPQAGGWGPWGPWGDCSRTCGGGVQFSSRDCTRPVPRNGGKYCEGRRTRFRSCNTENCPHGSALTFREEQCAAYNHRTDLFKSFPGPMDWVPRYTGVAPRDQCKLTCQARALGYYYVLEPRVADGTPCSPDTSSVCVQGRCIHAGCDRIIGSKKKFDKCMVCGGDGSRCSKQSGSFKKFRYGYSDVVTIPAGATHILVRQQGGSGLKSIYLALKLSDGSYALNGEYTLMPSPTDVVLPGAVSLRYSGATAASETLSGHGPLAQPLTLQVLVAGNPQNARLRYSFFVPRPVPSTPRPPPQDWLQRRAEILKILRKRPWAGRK", "assay": "In vivo MRI with negative control probe and ADAMTS4-specific probe", "settings": "for CNR post administration, individual animals: d1 = negative control probe, d2 = ADAMTS4-specific probe, 0.13 mmol/kg", "experimental": "In vivo MR imaging was performed in 6 ApoE^−/− mice (n = 6): three mice (n = 3) received AngII through the osmotic minipumps, three mice (n = 3) received saline, serving as the control group. MR imaging was performed 4 weeks after minipump implantation. On day 1, a native MR scan was followed by the intravenous injection of the negative control peptide (0.13 mmol/kg) and a subsequent MR scan. 24 h later, mice were imaged prior to and following the intravenous administration of the ADAMTS4-specific probe (0.13 mmol/kg).\n(§1) Analysis of resulting MR images was performed using OsiriX (version 7.1, OsiriX Foundation, Bernex, Switzerland). All morphometric measurements were conducted on high-resolution MRI images. In order to assess the signal intensities, regions of interest (ROIs) were measured as areas of signal enhancement, which were co-localized with areas of aneurysmal-aortic tissue. For these areas, the CNR was calculated using the following formula: CNR = (Combined vessel-wall and aneurysmal-aortic-tissue-signal − blood-signal)/standard-deviation-signal (noise). The signal of noise was defined as the standard deviation in pixel intensity from an ROI placed in the background air anterior to the aorta."}, "[4]": {"target": "T2, ADAMTS4 in the aneurysmal aortic wall of ApoE−/− mice (Mus musculus, UniProt Q8BNJ2)", "T2 construct": "from tissue", "T2 sequence (Q8BNJ2 209-833)": "T1 sequence (Q8BNJ2 209-833)", "assay": "In vivo MRI, longitudinal study (1 week after aneurysm induction)", "settings": "longitudinal group, 1 week after AngII, n = 12; one line per mouse", "experimental": "The longitudinal study includes an MR imaging session 1 week after aneurysm induction (n = 12) with the administration of the ADAMTS4-specific probe. Animals were then followed up for 4 weeks to evaluate the potential of the probes for the prediction of aneurysm progression. After 4 weeks, mice were sacrificed, and aortas excised.\nMR imaging was performed using a clinical 3 T Siemens system (Biograph, Siemens Healthcare Solutions, Erlangen, Germany). The system was equipped with a 4-channel receive-coil array for mouse body applications (Mouse Heart Array, P-H04LE-030, Version 1, Rapid Biomedical, Germany). Following anesthesia injection, the animals were positioned in a prone position, and body temperature (37 °C) was monitored using an MR-compatible heating system (Model 1025, SA Instruments Inc, Stony Brook, NY) to avoid rapid cooling. […]\nas §1, with “All morphometric measurements were conducted on high-resolution MRI images.” left out, “The signal of noise was defined as the standard deviation in pixel intensity from an ROI placed in the background air anterior to the aorta.” left out"}, "[5]": {"assay": "Gadolinium in the aortic wall by ICP-MS", "format": "in vivo, mouse", "settings": "ICP-MS of digested aorta after probe administration; individual mice, n = 7", "experimental": "The samples were dissolved with 12 ml ultrapure water."}, "[6]": {"target": "T1, ADAMTS4 in the aortic wall of ApoE−/− mice", "assay": "In vivo MRI, early detection study (days 2, 4, 10)", "settings": "for ADAMTS4-MRI signal (CNR): day 4 of AngII", "experimental": "For the early detection study, we used an AAA group (n = 20). MR imaging was performed after 2, 4, and 10 days of AngII-infusion. At each time point, mice were scanned prior to and following the administration of the ADAMTS4-specific probe (0.13 mmol/kg body weight). On day 28 post implantation, only native imaging was performed and subsequently, the aortic samples were excised.\nMR imaging was performed using a clinical 3 T Siemens system (Biograph, Siemens Healthcare Solutions, Erlangen, Germany). The system was equipped with a 4-channel receive-coil array for mouse body applications (Mouse Heart Array, P-H04LE-030, Version 1, Rapid Biomedical, Germany). Following anesthesia injection, the animals were positioned in a prone position, and body temperature (37 °C) was monitored using an MR-compatible heating system (Model 1025, SA Instruments Inc, Stony Brook, NY) to avoid rapid cooling. For intravenous administration of the molecular probe, venous access was established using a small diameter tube with an attached 30 G cannula. The imaging protocol included the following sequences:\nAfter a three-dimensional (3D) gradient-echo scout scan, a non-contrast-enhanced two-dimensional time-of-flight angiography (2D TOF) was acquired in transverse orientation for visualization of the abdominal aorta with the following parameters: field of view (FOV) of […], a matrix of 960 × 960, resolution of 0.2 × 0.2 × 0.5 mm, 40 slices, repetition time (TR)/echo time (TE) of 35 ms/4.44 ms, flip angle of 90°, and bandwidth of 124 Hz/Px. A maximum intensity projection (MIP) was then automatically generated to obtain an arterial angiogram of the abdominal aorta for planning the subsequent MR angiography and delayed-enhancement scans. A 2D inversion time (TI) scout sequence, planned perpendicular to the abdominal aorta, was used to determine the optimal TI for blood-signal nulling. Acquisition parameters were as follows: for the 2D TI sequence—FOV 340 × 340 mm, matrix 576 × 576, spatial resolution 0.6 × 0.6 × 3 mm, TR/TE 44.91 ms/2.09 ms, flip angle 35°, bandwidth 579 Hz/Px, TR between subsequent IR pulses 1000 ms; and for the high-resolution 3D IR FLASH sequence—FOV 57 × 57 mm, matrix 384 × 384, spatial resolution = 0.1 × 0.1 × 0.3 mm, 56 slices, TR/TE = 1019.72/7.02 ms, flip angle 30°, bandwidth 130 Hz/px, TR between subsequent IR pulses = 1000 ms.\nas §1"}, "[7]": {"settings": "male ApoE−/− mice, i.v., n = 3 per time point"}}, "note": "“And” between values parts separate entries of the source, which are not always exact repeats. Equal values may be shown once. Where a SMILES comes first, the peptide text is derived from it. Bridges are numbered along the chain shown (N, C = ends). The star is where a group is joined. DOTA = O=C(O)CN1CCN(CC(=O)O)CCN(CC(=O)*)CCN(CC(=O)O)CC1"}
{"molecule": "N=C(N)NCCC[C@@H]1NC(=O)[C@H](CCCNC(=N)N)NC(=O)[C@H](CO)NC(=O)[C@@H](N)CSSC[C@@H](C(=O)N[C@@H](CO)C(=O)NCC(=O)NCC(=O)N[C@@H](CO)C(=O)NCC(=O)NCC(=O)N[C@@H](CCCCNC(=O)CN2CCN(CC(=O)O)CCN(CC(=O)O)CCN(CC(=O)O)CC2)C(=O)NCC(N)=O)NC(=O)CNC1=O", "note": "(Gd complex, metal not drawn) [ADAMTS4-specific probe] (H-CSRRGCSGGSGGK(DOTA)G-NH2; disulfide 1-6)", "values": [{"measurement": "time of highest aortic uptake after intravenous injection", "setting": "[1]; ApoE−/− mice", "value": 15, "unit": "min"}, {"measurement": "blood clearance", "setting": "[1]; ApoE−/− mice, i.v., over 120 min", "value": "rapid blood clearance"}, {"measurement": "Gd levels in kidneys and urine", "setting": "[1]; [7]", "value": "Higher levels of Gd"}, {"measurement": "gadolinium uptake in liver, lung, spleen, heart and muscle", "setting": "[1]; [7]", "value": "low gadolinium uptake"}, {"measurement": "solubility", "setting": "[2]", "value": "high solubility"}, {"measurement": "increase in MR signal / CNR in the aortic wall, in words", "setting": "[3]; 0.13 mmol/kg i.v., 4 weeks after minipump implantation, n = 6", "value": "strong and significant increase"}, {"measurement": "CNR post administration, individual animals", "setting": "[3]; AAA (AngII) mice", "value": "10.87 and 12.24 and 11.33"}, {"measurement": "CNR post administration, individual animals", "setting": "[3]; control (c, saline) mice", "value": "6.48 and 5.75 and 6.1"}, {"measurement": "CNR post administration, individual animals", "setting": "[4]", "value": "10.17 and 7.35 and 11.97 and 12.63 and 7.15 and 7.46 and 7.27 and 8.85 and 11.26 and 15.46 and 7.57 and 11.23"}, {"measurement": "Gd amount in the aortic wall", "setting": "[5]", "value": "38.015 ng/kg and 35.695 ng/kg and 62.7086 ng/kg and 32.3631 ng/kg and 8.118 ng/kg and 16.4033 ng/kg and 11.8689 ng/kg"}, {"measurement": "ROC curve area for prediction of a fatal AAA rupture", "setting": "[6]; ADAMTS4-MRI level after 4 days", "value": 0.96}, {"measurement": "sensitivity for prediction of a fatal AAA rupture (ROC)", "setting": "[6]; ADAMTS4-MRI level after 4 days", "value": 0.88}, {"measurement": "specificity for prediction of a fatal AAA rupture (ROC)", "setting": "[6]; ADAMTS4-MRI level after 4 days", "value": 0.9}, {"measurement": "ADAMTS-4 levels (CNR)", "setting": "[6]; day 4, subgroup n = 4 without significant outward remodeling on MRI", "value": "11.7±0.8"}, {"measurement": "ADAMTS4-MRI signal (CNR)", "setting": "[6]; animals that developed an AAA and survived for 4 weeks", "value": "10.3 ± 1.1"}, {"measurement": "ADAMTS4-MRI signal (CNR)", "setting": "[6]; animals that did not develop an AAA", "value": "6.9 ± 1.2"}, {"measurement": "ADAMTS4-MRI signal (CNR)", "setting": "[6]; animals with fatal AAA rupture", "value": "15.2 ± 0.7"}]}
